According to paper PMC10082216 (Nature Communications, 2023):
Read-outs that look alike come from different tables or passages of the source.

Test: TD-6450 phase I clinical study (SAD/MAD): pharmacokinetics
Type: in vivo, human
Conditions: male, human
Description: Primary and secondary outcomes were pre-defined as follows: Safety and tolerability as a primary outcome, pharmacokinetics as a secondary outcome. Safety and tolerability were evaluated using standard measures, including adverse event (AE) monitoring, clinical laboratory tests (hematology, serum chemistry, coagulation, and urinalysis), vital signs, physical examinations, and 12-lead electrocardiograms (ECGs). […]
This study was conducted in two parts, Part A (SAD) and Part B (MAD). For the Part A, the age of enrolled subjects ranged from 20 to 60 years, with a mean age range of 32.1 to 46.2 years. Most subjects were male (73 total subjects) and most were white (55 subjects) or black (22 subjects). For Part B of the study, ages ranged from 23 to 60 years with a similar mean age across treatment groups. Most subjects were male (25 total subjects) and all were either white (18 subjects) or black (12 subjects). For each part of the study, the mean body mass index (BMI) and creatinine clearance were similar across treatment groups. […] Part A: Healthy subjects were sequentially enrolled and randomly assigned to each dose cohort (up to 10 dose-ascending cohorts were planned, including a fed arm in the food effect cohort) to receive either a single dose of TD-6450 or placebo. For each dose cohort, 8 subjects were randomized in a 3:1 ratio (6 subjects received TD-6450 and 2 subjects received placebo). The starting dose of TD-6450 was 0.5 mg with a planned maximum dose of 1000 mg. Upon review of the 500-mg cohort PK data, the decision was made to not escalate to the 1000-mg cohort because of exposure saturation at ≥ 500 mg. The following doses were administered: 0.5 mg, 1.5 mg, 5 mg, 15 mg, 30 mg, 60 mg, 120 mg, 240 mg, and 500 mg. Part B: Healthy subjects were sequentially enrolled in 3 ascending dose cohorts (TD-6450 60 mg, 120 mg, and 240 mg) and randomly assigned to receive either TD-6450 or placebo as once daily doses for 14 days. For each dose cohort, 10 subjects were randomized in a 4:1 ratio (8 subjects received TD-6450 and 2 subjects received placebo). Blinded safety, tolerability, and available PK data after each dose cohort were reviewed by the Safety Data Review Committee (SDRC) before escalation to the next dosing cohort for both part A and B. Subjects of the clinical study were randomly assigned to each cohort. Randomizations codes were assigned to the subjects. All study subjects, study investigators, and the sponsor’s staff involved in the conduct of the study were blinded to treatment assignment. The only personnel who had access to the randomization code before database lock were: The pharmacist or pharmacy staff member who prepared drug or placebo capsules for administration to the subject according to the randomization code and the bioanalytical contract laboratory that analyzed the PK samples (plasma and urine).

## CNC(=O)N1C[C@@H](C)N(c2ccc(C(=O)Nc3ccc(-c4ccc(-c5c[nH]c([C@@H]6CCCN6C(=O)[C@@H](NC(=O)OC)C(C)C)n5)cc4)c(OC(F)(F)F)c3)cn2)C[C@@H]1C [TD-6450]
In vivo, 120 h
  TD-6450 concentration: 29.30 ng/mL
In vivo, TD-6450 concentration
  concentration at 15 min: 0 ng/mL
  concentration at 2 h: 116 ng/mL
  concentration at 3 h: 156 ng/mL
  concentration at 4 h: 159 ng/mL
  concentration at 6 h: 165 ng/mL
  concentration at 12 h: 108 ng/mL
  concentration at 24 h: 85.6 ng/mL
  concentration at 48 h: 60 ng/mL
  concentration at 72 h: 42.6 ng/mL
  concentration at 96 h: 27.1 ng/mL
  concentration at 120 h: 19.3 ng/mL
  concentration at 144 h: 15.1 ng/mL
  concentration at 168 h: 12.2 ng/mL
  concentration at 312 h: 2.12 ng/mL
plasma, oral, 0.5 mg, Male subjects, SAD arm NCT02022306, Dose 0.50, 1 Hour, read-out: Concentration
  concentration at 1 h: 0 ng/mL
plasma, oral, 0.5 mg, Male subjects, SAD arm NCT02022306, Dose 0.50, 2 Hours, read-out: Concentration
  concentration at 2 h: 0 ng/mL
plasma, oral, 0.5 mg, Male subjects, SAD arm NCT02022306, Dose 0.50, 3 Hours, read-out: Concentration
  concentration at 3 h: 0 ng/mL
plasma, oral, 0.5 mg, Male subjects, SAD arm NCT02022306, Dose 0.50, 15 Minutes, read-out: Concentration
  concentration at 15 min: 0 ng/mL
plasma, oral, 0.5 mg, Male subjects, SAD arm NCT02022306, Dose 0.50, 24 Hours, read-out: Concentration
  concentration at 24 h: 0 ng/mL
plasma, oral, 0.5 mg, Male subjects, SAD arm NCT02022306, Dose 0.50, 30 Minutes, read-out: Concentration
  concentration at 30 min: 0 ng/mL
plasma, oral, 0.5 mg, Male subjects, SAD arm NCT02022306, Dose 0.50, 72 Hours, read-out: Concentration
  concentration at 72 h: 0 ng/mL
plasma, oral, 0.5 mg, Male subjects, SAD arm NCT02022306, Dose 0.50, 96 Hours, read-out: Concentration
  concentration at 96 h: 0 ng/mL
plasma, oral, 0.5 mg, Male subjects, SAD arm NCT02022306, Dose 0.50, 120 Hours, read-out: Concentration
  concentration at 120 h: 0 ng/mL
plasma, oral, 0.5 mg, Male subjects, SAD arm NCT02022306, Dose 0.50, 144 Hours, read-out: Concentration
  concentration at 144 h: 0 ng/mL
plasma, oral, 0.5 mg, Male subjects, SAD arm NCT02022306, Dose 0.50, 168 Hours, read-out: Concentration
  concentration at 168 h: 0 ng/mL
plasma, oral, 1.5 mg, Male subjects, SAD arm NCT02022306, Dose 1.50, 15 Minutes, read-out: Concentration
  concentration at 15 min: 0 ng/mL
plasma, oral, 1.5 mg, Male subjects, SAD arm NCT02022306, Dose 1.50, 30 Minutes, read-out: Concentration
  concentration at 30 min: 0 ng/mL
plasma, oral, 5 mg, Male subjects, SAD arm NCT02022306, Dose 5.00, 15 Minutes, read-out: Concentration
  concentration at 15 min: 0 ng/mL
plasma, oral, 15 mg, Male subjects, SAD arm NCT02022306, Dose 15.00, 15 Minutes, read-out: Concentration
  concentration at 15 min: 0 ng/mL
plasma, oral, 30 mg, Male subjects, SAD arm NCT02022306, Dose 30.00, 1 Hour, read-out: Concentration (ng/ml)
  concentration at 1 h: 0.68 ng/mL
plasma, oral, 30 mg, Male subjects, SAD arm NCT02022306, Dose 30.00, 2 Hours, read-out: Concentration
  concentration at 2 h: 9.36 ng/mL
plasma, oral, 30 mg, Male subjects, SAD arm NCT02022306, Dose 30.00, 3 Hours, read-out: Concentration
  concentration at 3 h: 15.6 ng/mL
plasma, oral, 30 mg, Male subjects, SAD arm NCT02022306, Dose 30.00, 3 Hours, read-out: Concentration (ng/ml)
  concentration at 3 h: 20.9 ng/mL
plasma, oral, 30 mg, Male subjects, SAD arm NCT02022306, Dose 30.00, 4 Hours, read-out: Concentration
  concentration at 4 h: 18.8 ng/mL
plasma, oral, 30 mg, Male subjects, SAD arm NCT02022306, Dose 30.00, 4 Hours, read-out: Concentration (ng/ml)
  concentration at 4 h: 17.9 ng/mL
plasma, oral, 30 mg, Male subjects, SAD arm NCT02022306, Dose 30.00, 6 Hours, read-out: Concentration
  concentration at 6 h: 22.6 ng/mL
plasma, oral, 30 mg, Male subjects, SAD arm NCT02022306, Dose 30.00, 8 Hours, read-out: Concentration
  concentration at 8 h: 26.3 ng/mL
plasma, oral, 30 mg, Male subjects, SAD arm NCT02022306, Dose 30.00, 12 Hours, read-out: Concentration
  concentration at 12 h: 18.7 ng/mL
plasma, oral, 30 mg, Male subjects, SAD arm NCT02022306, Dose 30.00, 15 Minutes, read-out: Concentration
  concentration at 15 min: 0 ng/mL
plasma, oral, 30 mg, Male subjects, SAD arm NCT02022306, Dose 30.00, 15 Minutes, read-out: Concentration (ng/ml)
  concentration at 15 min: 0 ng/mL
plasma, oral, 30 mg, Male subjects, SAD arm NCT02022306, Dose 30.00, 24 Hours, read-out: Concentration
  concentration at 24 h: 14.3 ng/mL
plasma, oral, 30 mg, Male subjects, SAD arm NCT02022306, Dose 30.00, 30 Minutes, read-out: Concentration (ng/ml)
  concentration at 30 min: 0 ng/mL
plasma, oral, 30 mg, Male subjects, SAD arm NCT02022306, Dose 30.00, 48 Hours, read-out: Concentration
  concentration at 48 h: 9.12 ng/mL
plasma, oral, 30 mg, Male subjects, SAD arm NCT02022306, Dose 30.00, 72 Hours, read-out: Concentration
  concentration at 72 h: 6.82 ng/mL
plasma, oral, 30 mg, Male subjects, SAD arm NCT02022306, Dose 30.00, 72 Hours, read-out: Concentration (ng/ml)
  concentration at 72 h: 5.73 ng/mL
plasma, oral, 30 mg, Male subjects, SAD arm NCT02022306, Dose 30.00, 96 Hours, read-out: Concentration
  concentration at 96 h: 5.25 ng/mL
plasma, oral, 30 mg, Male subjects, SAD arm NCT02022306, Dose 30.00, 96 Hours, read-out: Concentration (ng/ml)
  concentration at 96 h: 4.83 ng/mL
plasma, oral, 30 mg, Male subjects, SAD arm NCT02022306, Dose 30.00, 120 Hours, read-out: Concentration
  concentration at 120 h: 4.26 ng/mL
plasma, oral, 30 mg, Male subjects, SAD arm NCT02022306, Dose 30.00, 120 Hours, read-out: Concentration (ng/ml)
  concentration at 120 h: 3.52 ng/mL
plasma, oral, 30 mg, Male subjects, SAD arm NCT02022306, Dose 30.00, 144 Hours, read-out: Concentration
  concentration at 144 h: 3.26 ng/mL
plasma, oral, 30 mg, Male subjects, SAD arm NCT02022306, Dose 30.00, 144 Hours, read-out: Concentration (ng/ml)
  concentration at 144 h: 3.18 ng/mL
plasma, oral, 30 mg, Male subjects, SAD arm NCT02022306, Dose 30.00, 168 Hours, read-out: Concentration
  concentration at 168 h: 2.33 ng/mL
plasma, oral, 30 mg, Male subjects, SAD arm NCT02022306, Dose 30.00, 168 Hours, read-out: Concentration (ng/ml)
  concentration at 168 h: 2.29 ng/mL
plasma, oral, 60 mg, Male subjects, SAD arm NCT02022306, Dose 60.00, 8 Hours, read-out: Concentration (ng/ml)
  concentration at 8 h: 110 ng/mL
plasma, oral, 60 mg, Male subjects, SAD arm NCT02022306, Dose 60.00, 15 Minutes, read-out: Concentration (ng/ml)
  concentration at 15 min: 0 ng/mL
plasma, oral, 120 mg, Male subjects, SAD arm NCT02022306, Dose 120.00, 15 Minutes, read-out: Concentration (ng/ml)
  concentration at 15 min: 0 ng/mL
plasma, oral, 240 mg, Male subjects, SAD arm NCT02022306, Dose 240.00, 15 Minutes, read-out: Concentration (ng/ml)
  concentration at 15 min: 0 ng/mL
plasma, oral, 500 mg, Male subjects, SAD arm NCT02022306, Dose 500.00, 15 Minutes, read-out: Concentration (ng/ml)
  concentration at 15 min: 0 ng/mL
plasma, oral, 500 mg, Male subjects, SAD arm NCT02022306, Dose 500.00, 30 Minutes, read-out: Concentration (ng/ml)
  concentration at 30 min: 2.85 ng/mL
